Measured values from PubChem BioAssay AID1117265 (The Scripps Research Institute Molecular Screening Center, 2014).
Active and inactive are the calls of the source. How the calls were made is not given here.

Molecular target: Trace amine-associated receptor 1 (Homo sapiens) (UniProt Q96RJ0)
Test: blockers of trace amine receptor TAAR1 – cell-based, fluorescence, MedChem round 2, late-stage follow-up (AID 1117265)
Conditions: TAAR1-expressing cells, antagonist mode

Chain of Trace amine-associated receptor 1 (Homo sapiens) (Q96RJ0 whole entry, looked up, the tested form may be a part): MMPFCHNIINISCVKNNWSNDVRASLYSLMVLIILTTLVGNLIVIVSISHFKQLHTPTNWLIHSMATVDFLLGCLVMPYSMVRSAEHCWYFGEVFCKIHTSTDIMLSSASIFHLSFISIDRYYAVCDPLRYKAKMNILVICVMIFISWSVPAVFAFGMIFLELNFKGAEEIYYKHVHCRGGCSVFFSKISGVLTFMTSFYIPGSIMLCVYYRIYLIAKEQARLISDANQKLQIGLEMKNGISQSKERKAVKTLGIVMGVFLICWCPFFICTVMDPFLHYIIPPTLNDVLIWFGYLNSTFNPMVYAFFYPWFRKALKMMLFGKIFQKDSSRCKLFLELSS

Row | Compound | IC50
1 | N#Cc1c(C(F)(F)F)cc(-c2ccc(Cl)cc2)nc1SCC(=O)N1CCCCCC1 | > 29900 nM (inactive)
2 | Cc1ccc(C(=O)CCN2CCC(c3ccccc3)C2)cc1 (configuration not stated) | 672 nM
3 | COc1cc(C(=O)CCN2CCC(c3ccccc3)C2)cc(OC)c1OC (configuration not stated) | 419 nM
4 | N#Cc1c(C(F)(F)F)cc(-c2ccc(Cl)cc2)nc1SCC(=O)N1CCCC1 | 1070 nM
5 | O=C(CCN1CCC(c2ccccc2)C1)c1ccccc1 (configuration not stated) | 765 nM
6 | N#Cc1c(C(F)(F)F)cc(-c2ccc(Cl)cc2)nc1SCC(=O)Nc1ncccn1 | 3.74 nM
7 | CC(CN1CCCC1Cc1ccccc1)C(=O)c1ccc2c(c1)OCCO2 (configuration not stated) | 2960 nM
